Measurements from US20250195602A1, “Compositions and Methods for Treating Neuropathy” (Creative Bio-Peptides, Inc., priority 2021, published 2025).
Where two headings read alike, the source gives them in different places.

What was measured:
[1] = Pharmacokinetics and brain entry of RAP-103 in rats (oral gavage and IV); assay type: in vivo
[2] = Pharmacokinetics and brain entry of RAP-103 in guinea pigs (oral gavage and IV); assay type: in vivo
[3] = Pharmacokinetics of RAP-103 in non-human primates (plasma levels, bioavailability); assay type: in vivo, Rhesus macaques; Macaca mulatta; conditions: for bioavailability: rhesus monkey, in vivo
Method: In non-human primates (rhesus monkeys) RAP-103 was dosed once on Day 1 by intravenous bolus injection at 1 mg/kg and plasma levels determined. […] Drug in plasma after a single IV dose (1 mg/Kg) was still measurable at anticipated therapeutic levels 96 hrs. post-dose in non-human primates as shown in FIG. 2B.

[4] = Clinical observations and body weights over seven days after RAP-103 dosing (acute toxicity); assay type: in vivo, Rhesus macaques; Macaca mulatta
[5] = tested on: chemotherapy induced peripheral neuropathy (CIPN) caused by paclitaxel
Method: Morphine was used as a positive control for pain response.
The ability of RAP-103 was tested to treat chemotherapy induced peripheral neuropathy (CIPN) caused by paclitaxel in rodents. This assay uses the chemotherapeutic agent paclitaxel to elicit a chronic pain state. Once established, pain in these animals can persist for weeks.
Rats were given i.p. injections of paclitaxel (2 mg/kg) on days 0, 2, 4, and 6 to induce a chronic pain state. […] On day 21 morphine (2 mg/Kg) was also administered to animals as a positive control. Pain was assessed 60 minutes after morphine or RAP-103 administration on the left rear paw on day 21 with a series of von Frey filaments with logarithmically incrementing stiffness applied perpendicular to the midplantar region of the hind paw. The paw withdrawal force (grams, g) threshold was determined.

[6] = IV or oral gavage dosing, FIG. 2A

Q: What does the source list for C[C@H](O)[C@@H](N)C(=O)N[C@@H](C(=O)N[C@H](CC(N)=O)C(=O)N[C@H](Cc1ccc(O)cc1)C(=O)N[C@@H](C(=O)O)[C@H](C)O)[C@H](C)O [RAP-103, All D-peptide-Thr-Thr-Asn-Tyr-Thr]?
A: Brain level compared to plasma levels [1]: preferentially enters the brain; Brain entry by oral compared to IV dosing ([1]; FIG. 2A): preferentially entered the brain by oral; Brain entry [1, 6]: quickly entered the brain; Persistence at therapeutic levels in brain [1, 6]: at least 24 hrs; Brain level compared to plasma levels [2]: preferentially enters the brain; Brain entry by oral compared to IV dosing ([2]; FIG. 2A): preferentially entered the brain by oral; Brain entry [2, 6]: quickly entered the brain; Persistence at therapeutic levels in brain [2, 6]: at least 24 hrs; Brain entry ([3]; non-human primates (Rhesus macaque), oral and IV dosing): quickly entered the brain; Time post-dose at which drug in plasma was still measurable at anticipated therapeutic levels ([3]; non-human primates, single IV dose 1 mg/Kg, FIG. 2B): ≥ 96 h; bioavailability ([3]; 1 mg/kg, female rhesus monkeys, 1 mg/kg dose level, read-out: Absolute bioavailability): 88%; bioavailability ([3]; po, 1 mg/kg, male rhesus monkeys, 1 mg/kg dose level, read-out: Absolute bioavailability): 89%; bioavailability ([3]; po, 1 mg/kg, non-human primates, read-out: Oral bioavailability): 88%; AUC 0-T, male versus female monkeys ([3]; rhesus monkeys, 1 mg/kg): comparable; Cmax, male versus female monkeys ([3]; rhesus monkeys, 1 mg/kg): comparable; Acute toxicity [4]: no acute toxicity; RAP-103-related changes in body weights [4]: no RAP-103-related changes; RAP-103-related changes in clinical observations [4]: no RAP-103-related changes; Treatment of paclitaxel induced CIPN compared with standard of care (morphine) ([5]; animal model of CIPN, RAP-103 0.05 mg/kg vs morphine 2 mg/Kg): at least equivalent; Dose lower on a weight basis than morphine at at least equivalent effect ([5]; animal model of paclitaxel induced CIPN): about 40 fold; Paw withdraw threshold compared to vehicle ([5]; rats treated with paclitaxel, FIG. 4): increased paw withdraw threshold; Effect on chronic pain caused by repeated administration of paclitaxel ([5]; rats, 0.05 mg/kg daily i.p. days 17-21 post paclitaxel, assessed 60 minutes after dosing on day 21, FIG. 4): reduced chronic pain
